Measured values from the supplement of paper PMC11061612.

How the values were obtained:
Carboplatin = compound: C1CC(C1)(C(=O)[O-])C(=O)[O-].N.N.[Pt+2] [Carboplatin]; conditions: max 10 µM
Outline: (§1)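 Cancer cell lines were seeded in 1536-well plates in 7.5 μl DMEM/F12 or RPMI with 10% FBS, held 24 hours at 37°C and 5% CO2, then dosed for 72 hours (final DMSO typically 0.2%). Viability was read by CellTiter-Glo 2.0 luminescence and scaled between blank-well and DMSO-well means. The single-agent IC50 comes from dose responses fitted to a two-parameter logistic curve with a non-linear mixed effects model.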

AZD5363 = compound: C1CN(CCC1(C(=O)N[C@@H](CCO)C2=CC=C(C=C2)Cl)N)C3=NC=NC4=C3C=CN4 [AZD5363]; conditions: max 10 µM
Outline: as §1

AZD1775 = compound: C=CCn1c(=O)c2cnc(Nc3ccc(N4CCN(C)CC4)cc3)nc2n1-c1cccc(C(C)(C)O)n1 [AZD1775]; conditions: max 3 µM
Outline: as §1

Trametinib = compound: CC(=O)Nc1cccc(-n2c(=O)n(C3CC3)c(=O)c3c(Nc4ccc(I)cc4F)n(C)c(=O)c(C)c32)c1 [Trametinib]; conditions: max 1 µM
Outline: as §1

Paclitaxel = compound: CC(=O)O[C@H]1C(=O)[C@@]2(C)[C@H]([C@H](OC(=O)c3ccccc3)[C@]3(O)C[C@H](OC(=O)[C@H](O)[C@@H](NC(=O)c4ccccc4)c4ccccc4)C(C)=C1C3(C)C)[C@]1(OC(C)=O)CO[C@@H]1C[C@@H]2O [Paclitaxel]; conditions: max 3 µM
Outline: as §1

Palbociclib = compound: CC(=O)c1c(C)c2cnc(Nc3ccc(N4CCNCC4)cn3)nc2n(C2CCCC2)c1=O [Palbociclib]; conditions: max 10 µM
Outline: as §1

AZD1390 = compound: CC(C)n1c(=O)n(C)c2cnc3cc(F)c(-c4ccc(OCCCN5CCCCC5)nc4)cc3c21 [AZD1390]; conditions: max 0.3 µM
Outline: as §1

Venetoclax = compound: CC1(C)CCC(CN2CCN(c3ccc(C(=O)NS(=O)(=O)c4ccc(NCC5CCOCC5)c([N+](=O)[O-])c4)c(Oc4cnc5[nH]ccc5c4)c3)CC2)=C(c2ccc(Cl)cc2)C1 [Venetoclax]; conditions: max 1 µM
Outline: as §1

Dasatinib = compound: CC1=C(C(=CC=C1)Cl)NC(=O)C2=CN=C(S2)NC3=CC(=NC(=N3)C)N4CCN(CC4)CCO [Dasatinib]; conditions: max 2 µM
Outline: as §1

SG3199 = compound: CC1=CN2[C@@H](C1)C=NC3=CC(=C(C=C3C2=O)OC)OCCCCCOC4=C(C=C5C(=C4)N=C[C@@H]6CC(=CN6C5=O)C)OC [SG3199]; conditions: max 0.001 µM
Outline: as §1

AZD2811 = compound: CCN(CCO)CCCOc1ccc2c(Nc3cc(CC(=O)Nc4cccc(F)c4)[nH]n3)ncnc2c1 [AZD2811]; conditions: max 1 µM
Outline: as §1

SN-38 = compound: CCc1c2c(nc3ccc(O)cc13)-c1cc3c(c(=O)n1C2)COC(=O)[C@]3(O)CC [SN-38]; conditions: max 0.3 µM
Outline: as §1

AZD0156 = compound: CN(C)CCCOc1ccc(-c2ccc3ncc4c(c3c2)n(C2CCOCC2)c(=O)n4C)cn1 [AZD0156]; conditions: max 3 µM
Outline: as §1

AZD4320 = compound: CN(CC[C@H](CSC1=CC=CC=C1)NC2=C(C=C(C=C2)S(=O)(=O)NC(=O)C3=CC=C(C=C3)N4CCC(CC4)[C@H](C5=CC=CC=C5C6=CC=C(C=C6)Cl)O)S(=O)(=O)C(F)(F)F)CCO [AZD4320]; conditions: max 1 µM
Outline: as §1

Alisertib = compound: COc1cc(Nc2ncc3c(n2)-c2ccc(Cl)cc2C(c2c(F)cccc2OC)=NC3)ccc1C(=O)O [Alisertib]; conditions: max 10 µM
Outline: as §1

Etoposide = compound: COc1cc([C@@H]2c3cc4c(cc3[C@@H](O[C@@H]3O[C@@H]5CO[C@@H](C)O[C@H]5[C@H](O)[C@H]3O)[C@H]3COC(=O)[C@H]23)OCO4)cc(OC)c1O [Etoposide]; conditions: max 10 µM
Outline: as §1

Gefitinib = compound: COc1cc2ncnc(Nc3ccc(F)c(Cl)c3)c2cc1OCCCN1CCOCC1 [Gefitinib]; conditions: max 10 µM
Outline: as §1

Prexasertib = compound: COc1cccc(OCCCN)c1-c1cc(Nc2cnc(C#N)cn2)n[nH]1 [Prexasertib]; conditions: max 1 µM
Outline: as §1

Doxorubicin = compound: COc1cccc2c1C(=O)c1c(O)c3c(c(O)c1C2=O)C[C@@](O)(C(=O)CO)C[C@@H]3O[C@H]1C[C@H](N)[C@H](O)[C@H](C)O1 [Doxorubicin]; conditions: max 1 µM
Outline: as §1

AZD5153 = compound: COc1nnc2ccc(N3CCC(c4ccc(OCCN5CCN(C)C(=O)[C@H]5C)cc4)CC3)nn12 [AZD5153]; conditions: max 1 µM
Outline: as §1

Lapatinib = compound: CS(=O)(=O)CCNCc1ccc(-c2ccc3ncnc(Nc4ccc(OCc5cccc(F)c5)c(Cl)c4)c3c2)o1 [Lapatinib]; conditions: max 10 µM
Outline: as §1

AZD8186 = compound: C[C@@H](Nc1cc(F)cc(F)c1)c1cc(C(=O)N(C)C)cc2c(=O)cc(N3CCOCC3)oc12 [AZD8186]; conditions: max 10 µM
Outline: as §1

Crizotinib = compound: C[C@@H](Oc1cc(-c2cnn(C3CCNCC3)c2)cnc1N)c1c(Cl)ccc(F)c1Cl [Crizotinib]; conditions: max 10 µM
Outline: as §1

Savolitinib = compound: C[C@@H](c1ccc2nccn2c1)n1nnc2ncc(-c3cnn(C)c3)nc21 [Savolitinib]; conditions: max 1 µM
Outline: as §1

AZD6738 = compound: C[C@@H]1COCCN1C2=NC(=NC(=C2)C3(CC3)[S@](=N)(=O)C)C4=C5C=CNC5=NC=C4 [AZD6738]; conditions: max 10 µM
Outline: as §1

AZD5991 = compound: Cc1c2c(nn1C)CSCc1cc(n(C)n1)CSc1cc(c3ccccc3c1)OCCCc1c(C(=O)O)n(C)c3c-2c(Cl)ccc13 [AZD5991]; conditions: max 1 µM
Outline: as §1

AZD7648 = compound: Cc1cc2ncnn2cc1Nc1ncc2c(n1)n(C1CCOCC1)c(=O)n2C [AZD7648]; conditions: max 10 µM
Outline: as §1

Taselisib = compound: Cc1nc(-c2cn3c(n2)-c2ccc(-c4cnn(C(C)(C)C(N)=O)c4)cc2OCC3)n(C(C)C)n1 [Taselisib]; conditions: max 10 µM
Outline: as §1

Selumetinib = compound: Cn1cnc2c(F)c(Nc3ccc(Br)cc3Cl)c(C(=O)NOCCO)cc21 [Selumetinib]; conditions: max 10 µM
Outline: as §1

SRA737 = compound: N#Cc1cnc(Nc2cc(NC[C@H]3CNCCO3)c(C(F)(F)F)cn2)cn1 [SRA737]; conditions: max 10 µM
Outline: as §1

MK-2206 = compound: NC1(c2ccc(-c3nc4ccn5c(=O)[nH]nc5c4cc3-c3ccccc3)cc2)CCC1 [MK-2206]; conditions: max 10 µM
Outline: as §1

Gemcitabine = compound: Nc1ccn([C@@H]2O[C@H](CO)[C@@H](O)C2(F)F)c(=O)n1 [Gemcitabine]; conditions: max 0.3 µM
Outline: as §1

[1] = compound: O=C(Nc1ccc2[nH]nc(-c3ccncc3)c2c1)[C@@H]1CCN(CC(=O)N2CCN(c3ccc(-c4ncccn4)cc3)CC2)C1; conditions: max 5 µM
Outline: as §1

Olaparib = compound: O=C(c1cc(Cc2n[nH]c(=O)c3ccccc23)ccc1F)N1CCN(C(=O)C2CC2)CC1 [Olaparib]; conditions: max 10 µM
Outline: as §1

5-Fluorouracil = compound: O=c1[nH]cc(F)c(=O)[nH]1 [5-Fluorouracil]; conditions: max 20 µM
Outline: as §1

Cell Line	IC50, cell viability 72 h (Carboplatin) [nM]	IC50, cell viability 72 h (AZD5363) [nM]	IC50, cell viability 72 h (AZD1775) [nM]	IC50, cell viability 72 h (Trametinib) [nM]	IC50, cell viability 72 h (Paclitaxel) [nM]	IC50, cell viability 72 h (Palbociclib) [nM]	IC50, cell viability 72 h (AZD1390) [nM]	IC50, cell viability 72 h (Venetoclax) [nM]	IC50, cell viability 72 h (Dasatinib) [nM]	IC50, cell viability 72 h (SG3199) [nM]	IC50, cell viability 72 h (AZD2811) [nM]	IC50, cell viability 72 h (SN-38) [nM]	IC50, cell viability 72 h (AZD0156) [nM]	IC50, cell viability 72 h (AZD4320) [nM]	IC50, cell viability 72 h (Alisertib) [nM]	IC50, cell viability 72 h (Etoposide) [nM]	IC50, cell viability 72 h (Gefitinib) [nM]	IC50, cell viability 72 h (Prexasertib) [nM]	IC50, cell viability 72 h (Doxorubicin) [nM]	IC50, cell viability 72 h (AZD5153) [nM]	IC50, cell viability 72 h (Lapatinib) [nM]	IC50, cell viability 72 h (AZD8186) [nM]	IC50, cell viability 72 h (Crizotinib) [nM]	IC50, cell viability 72 h (Savolitinib) [nM]	IC50, cell viability 72 h (AZD6738) [nM]	IC50, cell viability 72 h (AZD5991) [nM]	IC50, cell viability 72 h (AZD7648) [nM]	IC50, cell viability 72 h (Taselisib) [nM]	IC50, cell viability 72 h (Selumetinib) [nM]	IC50, cell viability 72 h (SRA737) [nM]	IC50, cell viability 72 h (MK-2206) [nM]	IC50, cell viability 72 h (Gemcitabine) [nM]	IC50, cell viability 72 h [1] [nM]	IC50, cell viability 72 h (Olaparib) [nM]	IC50, cell viability 72 h (5-Fluorouracil) [nM]
A2780 (Ovarian Carcinoma)	> 10000	1830	813	39.1	4.38	1160	> 300	> 1000	> 2000	> 1	370	11.3	> 3000	> 1000	386	582	> 10000	334	48.3	73.7	> 10000	1380	2190	> 1000	3650	964	9290	117	3530	> 10000	1610	8.45	243	9950	9030
LU-165 (Small Cell Lung Carcinoma)	> 10000	> 10000	2940	> 1000	> 3000	> 10000	> 300	> 1000	> 2000	> 1	> 1000	> 300	> 3000	> 1000	> 10000	> 10000	> 10000	220	> 1000	> 1000	> 10000	> 10000	> 10000	> 1000	> 10000	> 1000	> 10000	> 10000	> 10000	> 10000	> 10000	> 300	> 5000	> 10000	> 20000
MHH-ES-1 (Ewing's Sarcoma)	> 10000	> 10000	649	> 1000	5.4	> 10000	> 300	> 1000	> 2000	> 1	215	3.05	> 3000	> 1000	319	2700	> 10000	212	425	614	> 10000	> 10000	3990	> 1000	> 10000	> 1000	> 10000	5810	> 10000	> 10000	> 10000	15.9	> 5000	4150	> 20000
EB2 (Burkitt's Lymphoma)	> 10000	3270	348	> 1000	30.1	> 10000	> 300	> 1000	494	> 1	> 1000	4.03	> 3000	> 1000	7230	198	> 10000	7.8	29.7	348	> 10000	4920	6780	> 1000	1630	> 1000	> 10000	2020	> 10000	1030	3040	13.8	> 5000	> 10000	> 20000
NCI-H2087 (Lung Adenocarcinoma)	> 10000	> 10000	> 3000	350	225	> 10000	> 300	> 1000	> 2000	> 1	> 1000	18.8	> 3000	> 1000	> 10000	> 10000	> 10000	96.2	> 1000	> 1000	> 10000	> 10000	> 10000	> 1000	> 10000	> 1000	> 10000	> 10000	6120	> 10000	> 10000	255	2200	> 10000	> 20000
